Among the test systems are XF 498 CNS; SNB-78 CNS; MDA-N; DMS 273 small cell lung; DMS 114 small cell lung; M19-MEL melanoma; RXF-631 renal; DLD-1 colon; HOP-18 NSCLC.
What all share (assay): inhibition of tumour cell growth, NCI panel, 48 h

“And” between values parts separate entries of the source, which are not always exact repeats. Equal values may be shown once.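 Five compound concentrations were applied to cells in 96-well plates for 48 hours; endpoints were derived by simple linear interpolation of the resulting dose-response curve. GI50 = concentration required for 50% inhibition of growth. TGI is the concentration that stops growth completely.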

`C=C(c1nc2ccc(Cl)cc2[nH]c1=O)C(O)c1ccc(C(O)C(=O)c2nc3ccc(Cl)cc3[nH]c2=O)cc1` (centres undefined): the TGI with XF 498 CNS, in the assay with SNB-78 CNS, in the assay with MDA-N, in the assay with DMS 273 small cell lung, in the assay with DMS 114 small cell lung and in the assay on M19-MEL melanoma was over 100 µM each time. Moreover, the TGI in the assay with RXF-631 renal and with DLD-1 colon was over 100 µM each time.
As to `COc1ccc(C(=O)C(c2ccc(OC)cc2)C2(O)C(=O)Nc3ccc([N+](=O)[O-])cc32)cc1` (centres undefined), the TGI in the assay on SNB-78 CNS, with DMS 273 small cell lung, in the assay with DMS 114 small cell lung, with M19-MEL melanoma and in the assay on DLD-1 colon was over 100 µM each time.
For the molecule `O=C1c2cccc(NCCCNCCO)c2C(=O)c2cccc(NCCCNCCO)c21`, the GI50 in the assay on XF 498 CNS is 0.827 µM and 2.41 µM; with DMS 114 small cell lung, 0.476 µM and 1.24 µM; with M19-MEL melanoma it was 0.712 µM and 1.8 µM. Also, the TGI in the assay with XF 498 CNS was 2.4 µM and 7.26 µM; with SNB-78 CNS it was 6.7 µM and 17.1 µM; in the assay with MDA-N, 3.23 µM; with DMS 273 small cell lung, 3.98 µM and 5.13 µM; with HOP-18 NSCLC, 7.69 µM; with DMS 114 small cell lung it was 1.92 µM and 4.77 µM. Also, the TGI in the assay with M19-MEL melanoma was 2.24 µM and 3.72 µM; in the assay on DLD-1 colon it was 12 µM and 6.25 µM.
With `CC1=NNC(=O)C2CCC(=O)N12` (centres undefined), the TGI in the assay on SNB-78 CNS, with DMS 273 small cell lung, with HOP-18 NSCLC, in the assay on DMS 114 small cell lung, in the assay on M19-MEL melanoma and in the assay with RXF-631 renal was over 100 µM each time. This molecule also showed a TGI in the assay on DLD-1 colon of over 100 µM.
With `CN(C)c1nc2ccccc2[nH]1`, the TGI with DMS 273 small cell lung, with HOP-18 NSCLC, with DMS 114 small cell lung, in the assay on M19-MEL melanoma and with DLD-1 colon was over 100 µM in each case.
For the molecule `CN(C)N=Nc1ccc(NC=O)cc1`, the TGI in the assay with MDA-N is over 100 µM.
Turning to `Cc1cc(CC(O)c2ccc(Cl)c(Cl)c2)nc(=O)[nH]1` (centres undefined), the TGI with XF 498 CNS was 41.3 µM; in the assay on SNB-78 CNS it was over 100 µM; in the assay on DMS 114 small cell lung, 26.8 µM; with M19-MEL melanoma it was over 100 µM; in the assay with DLD-1 colon, over 100 µM.
In the assay with MDA-N, `NC(=Nc1c([N+](=O)[O-])cnc2ccccc12)N1CCOCC1` displayed a TGI of over 100 µM.
For `[N-]=[N+]=NC12CC3C4CC5CC3C(C1)C(C5)C4C2`, the TGI in the assay with XF 498 CNS, in the assay on SNB-78 CNS, in the assay with DMS 273 small cell lung, in the assay with HOP-18 NSCLC, in the assay with DMS 114 small cell lung and with M19-MEL melanoma was over 100 µM each time. Besides, the TGI in the assay with RXF-631 renal and with DLD-1 colon was over 100 µM throughout.
For `CC1=C(C(=O)Nc2ccccc2)C(c2ccccc2)C(C(=O)Nc2ccccc2)=C(C)N1`, the TGI in the assay on SNB-78 CNS, in the assay with DMS 273 small cell lung, with HOP-18 NSCLC, in the assay on DMS 114 small cell lung, with M19-MEL melanoma and in the assay with DLD-1 colon was over 100 µM each time.
On to `O=C(/C=C/c1ccccc1O)c1ccccc1O`, for which the TGI with SNB-78 CNS, in the assay on DMS 273 small cell lung, in the assay with DMS 114 small cell lung, in the assay with M19-MEL melanoma and in the assay with DLD-1 colon was over 100 µM in each case.
Consider `S=C(Nc1ccccc1)N(/N=C/C=C/c1ccccc1)c1nnc(-c2ccccc2)c(-c2ccccc2)n1`, for which the TGI with XF 498 CNS, with SNB-78 CNS, with DMS 273 small cell lung, in the assay with DMS 114 small cell lung, in the assay with M19-MEL melanoma and in the assay on RXF-631 renal was over 100 µM each time. The molecule further yielded a TGI with DLD-1 colon of over 100 µM.
Take `COc1ccc2c3c([nH]c2c1[N+](=O)[O-])C(C)=NCC3`: the TGI in the assay on SNB-78 CNS, with DMS 273 small cell lung, with DMS 114 small cell lung, in the assay on RXF-631 renal and in the assay with DLD-1 colon was over 100 µM throughout.
Consider `CCCN=C(N)NC#N`, for which the TGI with SNB-78 CNS is over 100 µM; with DMS 273 small cell lung it was over 100 µM; with HOP-18 NSCLC, over 100 µM; in the assay with DMS 114 small cell lung it was 35.8 µM; with M19-MEL melanoma, over 100 µM; with DLD-1 colon, over 100 µM.
Consider `Cc1ccc(NC(=O)C(=O)C(C(=O)c2ccc3ccccc3c2)C2OC(=O)c3ccccc32)cc1C` (centres undefined), for which the TGI in the assay on XF 498 CNS came to 18.2 µM; with DMS 273 small cell lung, 30.3 µM; with HOP-18 NSCLC it was 21.7 µM; with DMS 114 small cell lung, 41.3 µM; in the assay with M19-MEL melanoma it was 20.6 µM; in the assay on DLD-1 colon, 36.7 µM.
`COc1cc(C#CC(=O)OC/C=C/c2ccc3c(c2)OCO3)cc(OC)c1OC` gave a TGI with MDA-N of 45 µM.
Turning to `Cc1ccc(Cc2c(=O)[nH]nc3ccccc23)cc1`, the TGI with XF 498 CNS, in the assay on SNB-78 CNS, in the assay on DMS 273 small cell lung, in the assay with HOP-18 NSCLC, in the assay on DMS 114 small cell lung and in the assay on M19-MEL melanoma was over 100 µM in each case. Further, the TGI in the assay on RXF-631 renal and with DLD-1 colon was over 100 µM each time.
For `CC(C)N(C(=O)C12C3C4C5(C#N)C3C1(C#N)C5C42I)C(C)C` (centres undefined), the TGI was over 100 µM in the assay with XF 498 CNS; over 100 µM in the assay with SNB-78 CNS; over 60.9 µM with DMS 273 small cell lung; over 100 µM with HOP-18 NSCLC; over 64.5 µM in the assay on DMS 114 small cell lung; over 100 µM in the assay on M19-MEL melanoma. Moreover, the TGI was over 100 µM in the assay with RXF-631 renal and over 60.9 µM with DLD-1 colon.
Consider `COc1cc(C(Cc2ccccc2)NC(C)=O)oc(=O)c1` (centres undefined), for which the TGI in the assay on XF 498 CNS, in the assay with DMS 273 small cell lung, with DMS 114 small cell lung, with M19-MEL melanoma and with DLD-1 colon was over 100 µM each time.
In the case of `CC(C)(C)CC(C)(C)c1cc2c(O)c(c1)Cc1cc(C(C)(C)CC(C)(C)C)cc(c1O)Cc1cc(C(C)(C)CC(C)(C)C)cc(c1O)Cc1cc(C(C)(C)CC(C)(C)C)cc(c1O)C2`, the TGI in the assay on XF 498 CNS, in the assay with SNB-78 CNS, in the assay with DMS 273 small cell lung, in the assay on DMS 114 small cell lung, in the assay on M19-MEL melanoma and in the assay with RXF-631 renal was over 100 µM throughout. The same molecule showed a TGI with DLD-1 colon of over 100 µM.
Consider `COc1cccc(/C=C/c2cc(OC)c(OC)c(OC)c2)c1`, for which the TGI in the assay on XF 498 CNS, in the assay on SNB-78 CNS, in the assay on DMS 273 small cell lung, with DMS 114 small cell lung, with M19-MEL melanoma and with RXF-631 renal was over 100 µM each time. In the assay on DLD-1 colon, this molecule returned a TGI of over 100 µM.
The molecule `COc1ccc2c(c1)CCCC(Br)C2=O` (centres undefined) had a TGI in the assay with MDA-N of 9.21 µM.
On to `C=C1C(=O)OC2CCN3CC=C(COC(=O)C(C)(O)C4(CO4)C1C)C23` (centres undefined), for which the TGI in the assay on MDA-N was over 100 µM.

These data come from PubChem BioAssay (NCI).
